Measurements as given in patent publication EP1650209A1, “Griseusin derivatives and their use as antitumor agents” (Oncotest GmbH, priority 2004, dated 2006).
Converted amounts (≈) assume the structure as drawn.

Experiments:
Assay in all cases: Clonogenic assay, colony formation of tumor stem cells from xenografts
Assay type in all cases: cell-based, human
[1] = system: LIXF 575; details: Liver, xenograft LIXF 575, colony formation
Procedure: (§1) Using various human cancer xenografts in vitro, the concentrations of compound B which inhibit formation of tumor colonies of tumor stem cells by 50% (IC50) and 70% (IC70) are determined in a clonogenic assay. Specifically, each solid tumor of bladder cancer (BXF 1036 and BXF 1299), cervical cancer (CEXF 633 and CEXF 773), colic cancer (CXF 1103, CXF 158, CXF 1729, CXF 264 and CXF 280), gastric cancer (GXF 251 and GXF 97), head and neck cancer (HNXF 536), liver cancer (LIXF 575), non small cell lung cancer comprising adeno, squamous epithelium and large cell carcinoma (LXFA 1012, LXFA 289, LXFA 297, LXFA 526, LXFA 592, LXFA 629, LXFA 677, LXFE 409, LXFL 1072, LXFL 430LX and LXFL 529), small cell lung cancer (LXFS 650), mammary cancer (MAXF 1162, MAXF 1384, MAXF 401, MAXF 449, MAXF 574, MAXF 583, MAXF 713 and MAXF 857), melanoma (MEXF 1341, MEXF 462, MEXF 535 and MEXF 989), ovary cancer (OVXF 899), pancreatic cancer (PAXF 546 and PAXF 736), prostate cancer (DU-145 and PC3M), pleuramesothelioma (PXF 1752), renal cancer (RXF 1220, RXF 1393, RXF 393, RXF 631 and RXF 944LX), and sarcoma (SXF 1301 and SXF 463) engrafted on RPMI nu/nu thymus aplastic nude mice were explanted, disaggregated by mincing and enzymatic digestion for 50 minutes using 125 U/mL DNAse I, 41 U/mL collagenase IV, 100 U/ml hyaluronidase III, and 1 U/mL dispase I, and passed through sieves of 200 µm and 50 µm mesh size and washed twice with sterile PBS-buffer to remove cell aggregated from single cells. The clonogenic assay was performed in a 24 multiwell format. Each of the resulting single cell suspensions was added at a density of 2·10^4 to 6·10^4 cells per well to 0.2 ml of Iscove's Modified Dulbecco's Medium (IMDM) containing 20% fetal calf serum and 0.01% gentamicin supplemented with 0.4% (w/v) agar, and plated onto a bottom layer consisting of the same culture medium containing 0.75% (w/v) agar. After 24 hours IMDM containing 20% fetal calf serum and 0.01 % gentamicin, together with a test compound, was added there to. Then, the plate was incubated at 37°C for 10 to 20 days in a humidified atmosphere of air containing 7.5% CO2. Within this period, in vitro tumor growth led to the formation of colonies with a diameter of > 50µm. Colony counts were performed with an automatic image analysis system (OMNICON 3600). 24 hours prior to evaluation, vital colonies were stained with a vital staining dye. Therefore, 100 µl of a sterile aqueous solution of 2-(4-iodophenyl)-3-(4-nitrophenyl)-5-phenyltetrazolium chloride (1 mg/ml) were added to each well of the plate, and plates were incubated for 24 hours at 37°C in a humidified atmosphere of air containing 7.5% CO2. Inhibition of colony formation was expressed as test versus untreated control (T/C-value [%]). IC50 and IC70 values were determined by plotting compound concentration versus cell viability. Table 3: Inhibition of Colony Formation of Tumor Stem Cells by griseusin derivative B

[2] = system: OVXF 899; details: Ovary, xenograft OVXF 899, colony formation
Procedure: as §1

[3] = system: LXFA 289; details: Lung, non small cell, xenograft LXFA 289, colony formation
Procedure: as §1

[4] = system: MAXF 449; details: Breast, xenograft MAXF 449, colony formation
Procedure: as §1

[5] = system: RXF 393; details: Kidney, xenograft RXF 393, colony formation
Procedure: as §1

[6] = system: SXF 1301; details: Sarcoma, xenograft SXF 1301, colony formation
Procedure: as §1

[7] = system: MEXF 1341; details: Melanoma, xenograft MEXF 1341, colony formation
Procedure: as §1

[8] = system: DU-145; details: Prostate, xenograft DU-145, colony formation
Procedure: as §1

[9] = system: LXFA 297; details: Lung, non small cell, xenograft LXFA 297, colony formation
Procedure: as §1

[10] = system: CXF 158; details: Colon, xenograft CXF 158, colony formation
Procedure: as §1

[11] = system: CXF 1729; details: Colon, xenograft CXF 1729, colony formation
Procedure: as §1

[12] = system: LXFA 629; details: Lung, non small cell, xenograft LXFA 629, colony formation
Procedure: as §1

[13] = system: LXFA 677; details: Lung, non small cell, xenograft LXFA 677, colony formation
Procedure: as §1

[14] = system: PXF 1752; details: Pleuramesothelio, xenograft PXF 1752, colony formation
Procedure: as §1

IC50 [1]: 0.616 µg/mL (≈ 1.54 µM)
IC50 [2]: 0.468 µg/mL (≈ 1.17 µM)
IC50 [3]: 0.218 µg/mL (≈ 0.545 µM)
IC50 [4]: 0.400 µg/mL (≈ 0.999 µM)
IC50 [5]: 0.150 µg/mL (≈ 0.375 µM)
IC50 [6]: 0.328 µg/mL (≈ 0.819 µM)
IC50 [7]: 0.462 µg/mL (≈ 1.15 µM)
IC50 [8]: 1.086 µg/mL (≈ 2.71 µM)
IC50 [9]: 1.461 µg/mL (≈ 3.65 µM)
IC50 [10]: 0.126 µg/mL (≈ 0.315 µM)
IC50 [11]: 0.453 µg/mL (≈ 1.13 µM)
IC50 [12]: 0.808 µg/mL (≈ 2.02 µM)
IC50 [13]: 0.974 µg/mL (≈ 2.43 µM)
IC50 [14]: 0.811 µg/mL (≈ 2.03 µM)
Compound: C[C@@H]1CC(=O)[C@@H](O)[C@]2(O1)O[C@@H]1CC(=O)O[C@@H]1C1=C2C(=O)c2c(O)cccc2C1=O [Compound B, 4'-dehydro-deacetylgriseusin A]
IC70 [1]: 0.764 µg/mL (≈ 1.91 µM)
IC70 [2]: 0.731 µg/mL (≈ 1.83 µM)
IC70 [3]: 0.425 µg/mL (≈ 1.06 µM)
IC70 [4]: 0.648 µg/mL (≈ 1.62 µM)
IC70 [5]: 0.212 µg/mL (≈ 0.53 µM)
IC70 [6]: 0.517 µg/mL (≈ 1.29 µM)
IC70 [7]: 0.673 µg/mL (≈ 1.68 µM)
IC70 [8]: 1.644 µg/mL (≈ 4.11 µM)
IC70 [9]: 2.179 µg/mL (≈ 5.44 µM)
IC70 [10]: 0.358 µg/mL (≈ 0.894 µM)
IC70 [11]: 0.630 µg/mL (≈ 1.57 µM)
IC70 [12]: 1.276 µg/mL (≈ 3.19 µM)
IC70 [13]: 8.063 µg/mL (≈ 20.1 µM)
IC70 [14]: 1.253 µg/mL (≈ 3.13 µM)
